Assay results from patent publication US12037583B2, “Compositions and methods for immunooncology” (Novartis AG, priority 2015, dated 2024).

Columns and labels:
TRAC = test: Editing of TRAC by dgRNAs in HEK cells stably expressing Cas9 (NGS); type: cell-based, human; conditions: dgRNA delivered to HEK cells stably expressing Cas9, target TRAC, mean of at least 3 experiments
Excerpt: (§1) FIG. 12: Mean (n≥3) editing of CRISPR systems with dgRNAs as indicated to TRAC in HEK cells (stably expressing Cas9) or primary human CD3+ T cells (delivery of dgRNA:Cas9 RNP by electroporation).

TRAC locus = test: Genomic editing of the TRAC locus in primary human CD3+ T cells by RNP electroporation (NGS: % indels, % frameshift edits, indel pattern); type: cell-based; conditions: dgRNA/Cas9 RNP by electroporation, target TRAC; for mean FS edit (%): frameshift edits in primary human CD3+ T cells; for mean total % edit: primary human CD3+ T cells, mean of at least 3 experiments;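 on all read-outs here: total edit is the insertion or deletion frequency at TRAC, and the frameshift value is the share of those indels that shift the coding frame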
Excerpt: as §1
FIG. 33C: Genomic editing of the TRAC locus resulting from human primary T cell electroporation with RNP containing the indicated gRNA targeting the TRAC locus is shown. The frequency of insertions or deletions is indicated (% indels) and the percentage of these edits that result in frameshifting of the coding sequence is shown (% frameshift edits).
Data for each experiment are the average from triplicate PCR products.

PDCD1 = test: NGS editing of PDCD1 by dgRNA in HEK cells stably expressing Cas9; type: cell-based, human; conditions: at least 3 experiments;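 further: dgRNA lipofected into Cas9-expressing HEK cells, lysed after 24 h, target amplicon sequenced, editing = reads carrying insertions or deletions as percent of all reads including wild type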
Excerpt: Transfection of Cas9GFP-expressing HEK293 cells (HEK-293_Cas9GFP) was used for primary screening of target specific crRNAs. […] Selected crRNAs were chemically synthesized and delivered in a 96 well format. HEK-293-Cas9GFP cells were transfected with target crRNAs comprising a flagpole region of SEQ ID NO: 6607 in a 1:1 ratio with stock trRNA of SEQ ID NO: 6660. The transfection was mediated using lipofection technology according to manufacturer's protocol (DharmaFECT Duo, GE LifeSciences; or RNAiMax, LifeTechnologies). Transfected cells were lysed 24 h following lipofection and editing (e.g., cleavage) was detected within lysates with the T7E1 assay and/or next generation sequencing (NGS; below).
PCR primers were first designed around the target site, and the genomic area of interest PCR amplified. Additional PCR was performed according to manufacturer's protocols (Illumina) to add the necessary chemistry for sequencing. The amplicons were then sequenced on an Illumina MiSeq instrument. The reads were then aligned to the human reference genome (e.g., hg38) after eliminating those having low quality scores. From the resulting files containing the reads mapped to the reference genome (BAM files), reads which overlap the target region of interest were selected and the number of wild type reads versus the number of reads which contain an insertion or deletion was calculated. The editing percentage was then defined as the total number of reads with insertions or deletions over the total number of reads, including wild type. To determine the pattern of insertions and/or deletions that resulted from the edit, the aligned reads with indels were selected and the number of a reads with a given indel were summed.
Editing of CRISPR systems containing dgRNA molecules comprising targeting domains to sequences of PDCD1 were tested for editing in HEK (gRNA delivered to cells stably expressing Cas9) and CD3+ T cells (gRNA and Cas9 delivered as RNP) according to the methods described herein.
All mean editing % are as measured by NGS and are based on at least 3 experiments.

| Substance | mean % edit (TRAC) [%] | mean FS edit (%) (TRAC locus) | mean total % edit (TRAC locus) [%] | HEK (NGS) % Editing Mean (PDCD1) [%] |
| --- | --- | --- | --- | --- |
| AAAGCUGCCCUUACCUGGGC (chemistry not given here; listed as Homo sapiens) [CR000976] | 2.8 | 1.7 | 1.8 |  |
| AACAAAUGUGUCACAAAGUA (chemistry not given here; listed as Homo sapiens) [CR000966] | 65.2 | 21.0 | 22.0 |  |
| AACGAGAAUCAUCUGCCUGC (chemistry not given here; listed as Homo sapiens) [CR000945] | 32.3 | 2.2 | 2.3 |  |
| AAGGUUCAGAUCAGAAGAGG (chemistry not given here; listed as Homo sapiens) [CR000921] | 58.3 | 11.3 | 12.7 |  |
| ACAAGUGCCCACAGGAAGCC (chemistry not given here; listed as Homo sapiens) [CR000930] | 12.2 | 7.1 | 9.9 |  |
| ACCAACUCACACAUACAGCC (chemistry not given here; listed as Homo sapiens) [CR000949] | 30.2 | 2.5 | 2.5 |  |
| ACCAGAGAUGUCUGUGCAGG (targeting domain within guide RNA, chemistry not given here, further chemistry not given here; listed as Homo sapiens) [CR000935] | 54.2 |  |  |  |
| ACCCGGCCACUUUCAGGAGG (chemistry not given here; listed as Homo sapiens) [CR000989] | 54.5 | 18.2 | 28.2 |  |
| AGAGCAACAGUGCUGUGGCC (chemistry not given here; listed as Homo sapiens) [CR000970] | 13.4 | 9.3 | 10.9 |  |
| AGAGUGAUUAUUAUUUAUUC (chemistry not given here; listed as Homo sapiens) [CR000941] | 33.4 | 7.6 | 9.6 |  |
| AGCAGCUUUCACCUCCUUGG (chemistry not given here; listed as Homo sapiens) [CR001009] | 65.3 | 22.8 | 27.3 |  |
| AGGAAGGAGCGAGGGAGCAC (chemistry not given here; listed as Homo sapiens) [CR000996] | 52.3 | 8.6 | 11.1 |  |
| AGGCUUCUCACCCUGCAGCA (chemistry not given here; listed as Homo sapiens) [CR000923] | 67.4 | 32.7 | 37.3 |  |
| AGUUGGUGGCAUUGCCGGGG (chemistry not given here; listed as Homo sapiens) [CR001015] | 35.9 | 20.4 | 21.8 |  |
| AUAUGUGCAGCUCAGGGUCA (chemistry not given here; listed as Homo sapiens) [CR000937] | 50.9 | 10.8 | 15.8 |  |
| AUCCUCCUCCUGAAAGUGGC (chemistry not given here; listed as Homo sapiens) [CR000987] | 39.6 | 18.2 | 20.6 |  |
| CAAUGCAGAGGAAGGAGCGA (chemistry not given here; listed as Homo sapiens) [CR000997] | 11.6 | 6.4 | 6.7 |  |
| CACACCUCUUGUCUUUGGAA (chemistry not given here; listed as Homo sapiens) [CR000954] | 22.3 | 2.6 | 2.7 |  |
| CACCAAAGCUGCCCUUACCU (chemistry not given here; listed as Homo sapiens) [CR000977] | 80.6 | 35.7 | 44.2 |  |

| Substance | mean % edit (TRAC) [%] | mean FS edit (%) (TRAC locus) | mean total % edit (TRAC locus) [%] | HEK (NGS) % Editing Mean (PDCD1) [%] |
| --- | --- | --- | --- | --- |
| CCACUUUCAGGAGGAGGAUU (chemistry not given here; listed as Homo sapiens) [CR000986] | 68.6 | 14.8 | 36.4 |  |
| CCAGGGCAUGCCAUGCUCAC (chemistry not given here; listed as Homo sapiens) [CR000928] | 54.2 | 14.6 | 18.1 |  |
| CCUGUGAGCAUGGCAUGCCC (chemistry not given here; listed as Homo sapiens) [CR000927] | 68.7 | 22.6 | 23.8 |  |
| CR000895: dgRNA targeting domain to PDCD1 (guide CACCAGGGUUUGGAACUGGC; targeting domain within dual guide RNA, chemistry not given here, further chemistry not given here; listed as Homo sapiens) |  |  |  | 49 |
| CR000896: dgRNA targeting domain to PDCD1 (guide CGGCCAGUUCCAAACCCUGG; targeting domain within dual guide RNA, chemistry not given here, further chemistry not given here; listed as Homo sapiens) |  |  |  | 42 |
| CR000897: dgRNA targeting domain to PDCD1 (guide CAACCACCAGGGUUUGGAAC; targeting domain within dual guide RNA, chemistry not given here, further chemistry not given here; listed as Homo sapiens) |  |  |  | 26 |
| CR000898: dgRNA targeting domain to PDCD1 (guide CAGUUCCAAACCCUGGUGGU; targeting domain within dual guide RNA, chemistry not given here, further chemistry not given here; listed as Homo sapiens) |  |  |  | 11 |
| CR000899: dgRNA targeting domain to PDCD1 (guide CGACACCAACCACCAGGGUU; targeting domain within dual guide RNA, chemistry not given here, further chemistry not given here; listed as Homo sapiens) |  |  |  | 5 |
| CR000903: dgRNA targeting domain to PDCD1 (guide CGCCCACGACACCAACCACC; targeting domain within dual guide RNA, chemistry not given here, further chemistry not given here; listed as Homo sapiens) |  |  |  | 54 |
| CR000904: dgRNA targeting domain to PDCD1 (guide CUGGUGGUUGGUGUCGUGGG; targeting domain within dual guide RNA, chemistry not given here, further chemistry not given here; listed as Homo sapiens) |  |  |  | 70 |
| CR000914: dgRNA targeting domain to PDCD1 (guide CUGCAGGGACAAUAGGAGCC; targeting domain within dual guide RNA, chemistry not given here, further chemistry not given here; listed as Homo sapiens) |  |  |  | 5 |
| CR000915: dgRNA targeting domain to PDCD1 (guide ACAAUAGGAGCCAGGCGCAC; targeting domain within dual guide RNA, chemistry not given here, further chemistry not given here; listed as Homo sapiens) |  |  |  | 35 |
| CR000916: dgRNA targeting domain to PDCD1 (guide CAGGGGCUGGCCGGUGCGCC; targeting domain within dual guide RNA, chemistry not given here, further chemistry not given here; listed as Homo sapiens) |  |  |  | 5 |
| CR000917: dgRNA targeting domain to PDCD1 (guide AAAAGAGUGAGACUCACCAG; targeting domain within dual guide RNA, chemistry not given here, further chemistry not given here; listed as Homo sapiens) |  |  |  | 43 |
| CR000918: dgRNA targeting domain to PDCD1 (guide GAAAAGAGUGAGACUCACCA; targeting domain within dual guide RNA, chemistry not given here, further chemistry not given here; listed as Homo sapiens) |  |  |  | 50 |
| CR000919: dgRNA targeting domain to PDCD1 (guide GGAAAAGAGUGAGACUCACC; targeting domain within dual guide RNA, chemistry not given here, further chemistry not given here; listed as Homo sapiens) |  |  |  | 42 |
| CUACCACCUCUGUGCCCCCC (chemistry not given here; listed as Homo sapiens) [CR001012] | 64.5 | 22.9 | 31.5 |  |
| CUGACAGGUUUUGAAAGUUU (chemistry not given here; listed as Homo sapiens) [CR000981] | 70.0 | 25.1 | 37.6 |  |
| GCCUCCUGCACAGACAUCUC (targeting domain within guide RNA, chemistry not given here, further chemistry not given here; listed as Homo sapiens) [CR000936] | 59.7 |  |  |  |
